Measurements taken from patent US10118954B2, “Apelin analogues” (University of Ulster, priority 2014, dated 2018).

Key:
[1] = Degradation of apelin peptides by plasma from fasted normal NIH Swiss mice (rp-HPLC, MALDI-TOF MS); format: in vitro ADME; conditions: for half-life at 263 µg/mL / remaining at 4 h, 263 µg/mL: NIH Swiss, mouse, plasma, pH 7.4
Protocol: Degradation of Apelin Peptides by Plasma from Fasted Normal NIH Swiss Mice […] The enzymatic reaction was stopped by adding 50 μl of 10% TFA (0.1% v/v; Sigma-Aldrich Ltd, (Poole, Dorset, UK) and frozen at -20° C. until separation. The terminated reaction products were then applied to an analytical Vydac C-8 column (4.6×150 mm; Phenomenex, Macclesfield, Cheshire, UK) for rp-HPLC analysis. The absorbance was monitored at 214 nm using a […] UV 2000 detector (Thermoquest Limited, Manchester, UK) and the traces were recorded by Thermo Electron ChromQuest data collection software (version 4). HPLC peak fractions were collected manually and subjected to MALDI-TOF mass spectrometry for peptide identification. Degradation profile of various apelin-13 related analogues: plasma incubations (4 h) were separated on a Vydac C-8 analytical HPLC column and all peaks were collected prior to analysis by MALDI-TOF mass spectrometry. Degradation fragments, actual molecular weights (Mr) and retention times (RT) are shown. Theoretical molecular weights of each fragment are shown in brackets. […] Degradation fragments, theoretical molecular weights (Mr) and retention times (RT) are shown. Theoretical molecular weights of each fragment are shown in brackets.

[2] = tested on: NIH Swiss mice fed a high-fat diet for 150 days; assay: Acute and delayed i.p. glucose tolerance test, blood glucose and plasma insulin; format: in vivo
Protocol: Plasma glucose and plasma insulin concentrations were measured prior to and after i.p. administration of glucose alone (18 mmol/kg body weight), or in combination with apelin analogues (25 nmol/kg body weight) in 18 h fasted mice fed a high-fat diet for 150 days. Values represent mean±SEM for eight mice (n=8). *P<0.05, **P<0.01 and ***P<0.001 compared to glucose alone. FIG. 6 illustrates effect of i.p. administration of glucose alone (18 mmol/kg body weight), ([…])apelin-13 and ([…])apelin-13 alone or in combination (each 25 nmol/kg body weight) on (A) blood glucose and (B) plasma insulin in 18 h fasted mice fed a high-fat diet for 150 days. Values represent mean±SEM for eight mice (n=8). *p<0.05 and **p<0.01 compared to glucose alone, ^+P<0.05 compared to ([…])apelin-13, ^∇P<0.05 and ^∇∇P<0.01 compared to ([…])apelin-13. FIG. 10 illustrates tests conducted 2 h after administration of apelin related analogues (25 nmol/kg body wt) in 18 h fasted mice fed a high-fat diet for 150 days. (A) Blood glucose and (B) plasma insulin was measured before and after i.p. administration of glucose (18 mmol/kg body wt) alone or in combination with apelin analogues. Values represent mean±SEM for eight mice (n=8). *P<0.05 and **P<0.01 compared to glucose alone. FIG. 11 illustrates tests conducted 8 h after administration of apelin related analogues (25 nmol/kg body wt) in 18 h fasted mice fed a high-fat diet for 150 days. (A) Blood glucose and (B) plasma insulin was measured before and after i.p. administration of glucose (18 mmol/kg body wt) alone or in combination with apelin analogues. Values represent mean±SEM for eight mice (n=8). *P<0.05 and **P<0.01 compared to glucose alone. FIG. 12 illustrates acute effects of fatty acid modified apelin analogues on glucose-lowering and insulin release in high fat fed Swiss NIH mice with dietary-induced diabetes. (A) Blood glucose and (B) plasma insulin concentrations were measured prior to and after i.p. administration of glucose alone (18 mmol/kg body weight), or in combination with apelin analogues (25 nmol/kg body weight) in 18 h fasted mice fed a high-fat diet for 150 days. Values represent mean±SEM for eight mice (n=8). *P<0.05, compared to glucose alone. FIG. 13 illustrates tests conducted 16 h after administration of fatty acid apelin analogues (25 nmol/kg body wt) in mice fed a high-fat diet for 150 days. (A) Blood glucose and (B) plasma insulin was measured before and after i.p. administration of glucose (18 mmol/kg body wt) alone or in combination with apelin analogues. Values represent mean±SEM for eight mice (n=8). *P<0.05, **P<0.01 and ***P<0.001 compared to glucose alone. NIH Swiss mice (Harlan UK Ltd., Blackthorne, UK) were derived from a nucleus colony obtained from the National Institute of Health, Bethesda, Md., USA. One group of mice were maintained on a standard rodent diet (10% fat, 30% protein, 60% carbohydrate; percent of total energy 12.99 kJ/g, Trouw Nutrition, Cheshire, UK) and used as a model of normal glycaemia. Other NIH Swiss mice were maintained on a high fat diet (45% fat, 20% protein, 35% carbohydrate; percent of total energy 26.15 […], UK) from 8 weeks of age for 150 days to produce a model of diet induced obesity-diabetes. […] All mice were housed in an air-conditioned room maintained at 22±2° C. with a 12 h light: 12 h dark cycle (08:00-20:00 h), were singly caged, and selected for experimental groups according to body weight and non-fasted blood glucose. Drinking water and diet were freely available. All animal studies were performed in accordance with the UK Animals (Scientific Procedures) Act 1986. For acute in vivo studies, blood samples were collected from the cut tip of the tail vain of fasted, conscious mice into fluoride/heparin coated glucose microcentrifuge tubes (Sarstedt, Germany) immediately prior to (t=0) and at 15, 30, 60 and 105 min following i.p. injection of glucose ([…]).

[3] = tested on: high fat fed NIH Swiss mice; assay: 28 day long-term study, twice daily i.p. administration; format: in vivo; conditions: for Percentage fat mass compared to high-fat fed controls: DEXA; for Glucose tolerance and plasma insulin excursion following an i.p. and oral glucose load: after the 28 day treatment period
From the text: NIH Swiss mice (Harlan UK Ltd., Blackthorne, UK) were derived from a nucleus colony obtained from the National Institute of Health, Bethesda, Md., USA. One group of mice were maintained on a standard rodent diet (10% fat, 30% protein, 60% carbohydrate; percent of total energy 12.99 kJ/g, Trouw Nutrition, Cheshire, UK) and used as a model of normal glycaemia. Other NIH Swiss mice were maintained on a high fat diet (45% fat, 20% protein, 35% carbohydrate; percent of total energy 26.15 […], UK) from 8 weeks of age for 150 days to produce a model of diet induced obesity-diabetes. […] Drinking water and diet were freely available. All animal studies were performed in accordance with the UK Animals (Scientific Procedures) Act 1986. […] Following the run-in period, normal control (n=8) and high-fat fed mice (n=8) received twice daily (09:00 and 17:00 h) i.p. administration of saline vehicle (0.9% NaCl (w/v)) for 28 days. […] Blood samples for glucose and plasma insulin measurement were collected at intervals throughout the study from the cut tail vein of conscious mice. […] Glucose was measured using an Ascensia Contour meter and blood was collected and processed for plasma insulin analysis by radioimmunoassay. Body weight and fat mass was also assessed using the PIXImus DEXA scanner whilst energy expenditure, intake, food intake and feeding bouts were assessed using the CLAMS metabolic chamber. HbA1c was analysed post 28 days using Bayer A1C Now^+ Multi Test meter. Lipid profile test was obtained by using the iLab analyser. Cholesterol, triglyceride and HDL-cholesterol levels were measured, in plasma (3 μl), using the iLab analyser. LDL-cholesterol levels were obtained using the Friedewald equation=total cholesterol-HDL-(triglycerides/3).

[4] = acute, peptide 25 nmol/kg i.p. with glucose 18 mmol/kg, Table 4
[5] = following a 2 h delay, 25 nmol/kg
[6] = following a 8 h delay, 25 nmol/kg
[7] = twice daily 25 nmol/kg bw, 28 days
[8] = acute, alone and in combination, each 25 nmol/kg i.p. with glucose, Table 5

Degradation fragment, Peak 1 [1] | Rank order of stability [1] | half-life at 263 µg/mL [1] [h] | remaining at 4 h, 263 µg/mL [1] [%] | SMILES | Rank order on basis of anti-hyperglycaemic efficacy ([2]; acute, Table 4) | Blood glucose as percent of glucose-alone control (lower = stronger glucose lowering) [2, 4] | Insulin secretion, where glucose alone = 100% [2, 4] | Rank order on basis of anti-hyperglycaemic efficacy ([2]; following a 2 h delay) | Blood glucose as percent of glucose-alone control (lower = stronger glucose lowering) [2, 5] | Insulin secretion, where glucose alone = 100% [2, 5] | Rank order on basis of anti-hyperglycaemic efficacy ([2]; following a 8 h delay) | Blood glucose as percent of glucose-alone control (lower = stronger glucose lowering) [2, 6] | Insulin secretion, where glucose alone = 100% [2, 6] | Percentage fat mass compared to high-fat fed controls ([3]; after 28 days) | Glucose tolerance and plasma insulin excursion following an i.p. and oral glucose load [3] | Day of study at which bodyweight was significantly decreased [3, 7] [days] | further results
amide (1-5) | 7 | 10.4 | 85 ± 1.3 | CSCC[C@H](NC(=O)[C@@H]1CCCN1C(=O)CNC(=O)[C@H](CCCCN)NC(=O)[C@H](Cc1c[nH]cn1)NC(=O)[C@H](CO)NC(=O)[C@H](CC(C)C)NC(=O)[C@H](CCCNC(=N)N)NC(=O)[C@@H]1CCCN1C(=O)[C@H](CCCNC(=N)N)NC(=O)[C@@H]1CCC(=O)N1)C(=O)N1CCC[C@H]1C(=O)N[C@@H](Cc1ccccc1)C(N)=O [(pGlu)apelin-13-amide] | 1 | 57% (**) | 159% (***) | 1 | 67% (**) | 146% (***) | 1 | 79% (*) | 120% (*) | significantly reduced | significantly improved | ~20 | Degradation fragment, Peak 2 [1]: amide (1-12); Time after injection up to which efficacy is retained ([2]; glucose lowering, high-fat fed mice): up to 8 h; Glycated haemoglobin (HbA1c) in comparison to high-fat fed saline treated controls ([3]; after 28 days): reduction; Insulin sensitivity ([3]; after 28 days, insulin 25 U/kg bw): significantly improved; Day of study at which circulating blood glucose began to be significantly reduced and plasma insulin increased [3, 7]: 10 days; Food intake [3, 7]: significantly reduced food intake; Non-fasting plasma insulin levels [3, 7]: significant increase
Apelin-13-amide (1-12) | 5 | 11.4 | 80.4 ± 1.9 | CSCC[C@H](NC(=O)[C@@H]1CCCN1C(=O)CNC(=O)[C@H](CCCCN)NC(=O)[C@H](Cc1c[nH]cn1)NC(=O)[C@H](CO)NC(=O)[C@H](CC(C)C)NC(=O)[C@H](CCCNC(=N)N)NC(=O)[C@@H]1CCCN1C(=O)[C@H](CCCNC(=N)N)NC(=O)[C@@H](N)CCC(N)=O)C(=O)N1CCC[C@H]1C(=O)N[C@@H](Cc1ccccc1)C(N)=O [Apelin-13-amide] | 2 | 65% (**) | 153% (***) | 2 | 73% (**) | 142% (**) | 3 | 88% ^ | 106% | failed to reach significance | significantly improved | ~20 | Glucose lowering, where glucose alone = 100% [2, 8]: 65% (**); Insulin secretion, where glucose alone = 100% [2, 8]: 153% (***)
